{"source": "patent US7183287B2", "about": "“Substituted pyrimidinones” (Pharmacia Corporation, priority 2003, dated 2007)", "data": [{"biological_target": "T1, human p38 kinase alpha (Homo sapiens, UniProt Q16539)", "T1 construct": "The coding region of the human p38a cDNA is obtained by PCR-amplification from RNA isolated from the human monocyte cell line THP.1; made in house; host or cells: E. coli DH10B (plasmid pMON 35802, pGEX 2T)", "T1 sequence (Q16539 whole entry)": "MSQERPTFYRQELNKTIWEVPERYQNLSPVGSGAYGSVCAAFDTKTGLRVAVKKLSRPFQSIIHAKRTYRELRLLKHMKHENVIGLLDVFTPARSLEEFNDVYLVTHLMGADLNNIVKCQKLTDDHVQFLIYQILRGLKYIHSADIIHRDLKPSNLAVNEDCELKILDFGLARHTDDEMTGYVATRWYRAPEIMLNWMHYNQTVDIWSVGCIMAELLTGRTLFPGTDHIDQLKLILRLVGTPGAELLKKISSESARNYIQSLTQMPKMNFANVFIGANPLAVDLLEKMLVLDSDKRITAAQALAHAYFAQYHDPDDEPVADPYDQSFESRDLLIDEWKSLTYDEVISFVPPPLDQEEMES", "experiment": "p38 kinase alpha in vitro assay (phosphorylation of PHAS-I with 32P-ATP or of EGFRP with 33P-ATP)", "assay_type": "biochemical", "protocol": "The ability of compounds to inhibit human p38 kinase alpha is evaluated using two in vitro assay methods. In the first method, activated human p38 kinase alpha phosphorylates a biotinylated substrate, PHAS-I (phosphorylated heat and acid stable protein-insulin inducible), in the presence of gamma ^32P-ATP (^32P-ATP). PHAS-I is biotinylated prior to the assay and provides a means of capturing the substrate, which is phosphorylated during the assay. p38 Kinase is activated by MKK6. Compounds were tested in 10 fold serial dilutions over the range of 100 μM to 0.001 μM using 1% DMSO. Each concentration of inhibitor is tested in triplicate.\nAll reactions are carried out in 96 well polypropylene plates. Each reaction well contains 25 mM HEPES pH 7.5, 10 mM magnesium acetate and 50 μM unlabeled ATP. Activation of p38 is required to achieve sufficient signal in the assay. Biotinylated PHAS-I is used at 1–2 μg per 50 μl reaction volume, with a final concentration of 1.5 μM. Activated human p38 kinase alpha is used at 1 μg per 50 μl reaction volume representing a final concentration of 0.3 μM. Gamma ^32P-ATP is used to follow the phosphorylation of PHAS-I. ^32P-ATP has a specific activity of 3000 Ci/mmol and is used at 1.2 μCi per 50 μl reaction volume. The reaction proceeds either for one hour or overnight at 30° C.\nFollowing incubation, 20 μl of reaction mixture is transferred to a high capacity streptavidin coated filter plate (SAM-streptavidin-matrix, Promega) prewetted with phosphate buffered saline. […] The plates are sealed and counted.\nA second assay format is also employed that is based on p38 kinase alpha induced phosphorylation of EGFRP (epidermal growth factor receptor peptide, a 21 mer) in the presence ^33P-ATP. […] Compounds were evaluated in 50 μl reaction volumes in the presence of 25 mM Hepes pH 7.5, 10 mM magnesium acetate, 4% glycerol, 0.4% bovine serum albumin, 0.4 mM DTT, 50 μM unlabeled ATP, 25 μg EGFRP (200 μM), and 0.05 μCi ^33P-ATP. […] 150 μl of Microscint 40 is then added to each well of the Microlite plate, and the plate is sealed, mixed, and counted.", "units": {"IC50": "µM"}, "values": [{"molecule": "O=c1c(Br)c(OCc2ccccc2)ncn1Cc1ccccc1", "IC50": "< 5"}, {"molecule": "COC(=O)c1ccc(C)c(-n2c(C)nc(OCc3ccc(F)cc3F)c(Br)c2=O)c1", "IC50": "< 5"}, {"molecule": "CNC(=O)c1ccc(C)c(-n2c(C)nc(OCc3ccc(F)cc3F)c(Br)c2=O)c1", "IC50": "< 5"}]}]}
